A short description of the series: Solubility of TMB in different solvents. The series is classed as physicochemical. An excerpt:
The following Table 1 presents results regarding the solubility of TMB in different solvents.

Each structure is given as a SMILES string. In brackets after ≈: the same amount, converted by molar mass.

What is called solubility is the dissolved amount per volume that the medium holds.

For `Cc1cc(-c2cc(C)c(N)c(C)c2)cc(C)c1N` [TMB, 3,3′,5,5′-tetramethylbenzidine], the solubility reads like this: (organic solvent or mixture, solvent Dimethylsulfonamide) 1.6 mM (≈ 385 µg/mL); (organic solvent or mixture, solvent Ethyl acetate) 10 mM (≈ 2400 µg/mL); (organic solvent or mixture, solvent Methanol) 5.2 mM (≈ 1250 µg/mL); (water, solvent Water) 0.1 mM (≈ 24 µg/mL).

The record behind these values is patent US9547000B2, “Chromogenic absorbent material for animal litter and related chromogenic solution” (7905122 CANADA INC., priority 2012, dated 2017).
